PubChem BioAssay (NCI)
Values joined by “and” are separate entries in the source; they are usually repeats but may differ in a detail not shown here. Equal values may be shown once.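 Dose response: 5 concentrations. Exposure: 48 h. Format: 96-well plates. Endpoint: linear interpolation; highest concentration if not reached. GI50: concentration for 50% inhibition of growth. At the TGI there is no net growth.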

Experiments:
Experiment in all cases: NCI-60 cell line screen, 48 h
CCRF-CEM leukemia = system: CCRF-CEM leukemia
HT29 colon = system: HT29 colon
IGROV1 ovarian = system: IGROV1 ovarian
MALME-3M melanoma = system: MALME-3M melanoma
MOLT-4 leukemia = system: MOLT-4 leukemia
OVCAR-4 ovarian = system: OVCAR-4 ovarian
OVCAR-5 ovarian = system: OVCAR-5 ovarian
SF-268 CNS = system: SF-268 CNS
SK-MEL-5 melanoma = system: SK-MEL-5 melanoma
SNB-75 CNS = system: SNB-75 CNS

Row | SMILES | TGI (CCRF-CEM leukemia) [µM] | GI50 (HT29 colon) [µM] | TGI (HT29 colon) [µM] | GI50 (IGROV1 ovarian) [µM] | TGI (IGROV1 ovarian) | TGI (MALME-3M melanoma) [µM] | TGI (MOLT-4 leukemia) [µM] | GI50 (OVCAR-4 ovarian) [µM] | TGI (OVCAR-4 ovarian) | GI50 (OVCAR-5 ovarian) [µM] | TGI (OVCAR-5 ovarian) | TGI (SF-268 CNS) [µM] | TGI (SK-MEL-5 melanoma) [µM] | GI50 (SNB-75 CNS) [µM] | TGI (SNB-75 CNS) [µM] | GI50 (CCRF-CEM leukemia) [µM] | GI50 (MALME-3M melanoma) [µM] | GI50 (MOLT-4 leukemia) [µM] | GI50 (SF-268 CNS) [µM] | GI50 (SK-MEL-5 melanoma) [µM]
1 | COc1ccc2cc1Oc1ccc(cc1)CC1c3c(cc(OC)c4c3Oc3cc5c(cc3O4)CCNC5C2)CCN1C (centres undefined) | 3.61 | 0.626 | 1.91 | 1.47 | 3.41 µM and 2.82 µM | 3.68 | 3.44 | 1.61 | 6.16 µM and 3.13 µM | 1.98 | 15.1 µM and 3.46 µM | 3.84 | 3.98 | 1.68 | 3.06 | – | – | – | – | –
2 | COc1ccc(C2=NOC3=c4ccccc4=CSC3=C2c2ccccc2)cc1 | > 100 | 37.1 | > 100 | 45.8 | > 100 µM | > 100 | > 100 | 49.7 | > 100 µM | 80.1 | > 100 µM | 79.6 | 39.7 | > 100 | > 100 | 21.7 | 43.7 | > 100 | 23.5 | 16.5
3 | COc1ccccc1CNCCCN1C(=O)c2ccc3c4c(ccc(c24)C1=O)C(=O)N(CCCNCCCCN)C3=O | 3.28 | 0.206 | 0.695 | 0.464 | 15.9 µM | 0.327 | 1.26 | 0.165 | 0.319 µM | 1.06 | 7.97 µM | 1.68 | 0.303 | 0.344 | 1.67 | 0.304 | 0.176 | 0.324 | 0.29 | 0.164
4 | O=C(CC/C(CC(=O)c1ccc(Cl)cc1)=N\O)Nc1cccc(Cl)c1 | > 100 | – | > 100 | – | > 100 µM | > 100 | > 100 | – | > 100 µM | – | > 100 µM | > 100 | > 100 | – | > 100 | – | – | – | – | –
5 | COc1ccc(-c2nc3sccn3c2/C=C/C(=O)c2cc(OC)c(OC)c(OC)c2)cc1 | 53.1 | 3.22 | 11.8 | 1.24 | – | > 100 | 23.7 | 3.21 | > 100 µM | 3.68 | > 23.9 µM | > 100 | 2.98 | 1.3 | > 20.7 | 3.4 | 4.39 | 2.24 | 2.76 | 1.42
6 | O=C(Cn1ccnc1[N+](=O)[O-])NCc1ccc(F)cc1 | > 100 | – | > 100 | – | > 100 µM | > 100 | > 100 | – | > 100 µM | – | > 100 µM | > 100 | > 100 | – | > 100 | – | – | – | – | –
7 | OCCN1CCCN(CCCN2c3ccccc3Sc3ccc(C(F)(F)F)cc32)CC1 | 5.76 | 1.76 | 3.75 | 2.68 | 7.22 µM | 3.82 | 5.2 | 3.11 | 13.4 µM | 3.21 | 15 µM | 15.5 | 3.09 | 1.21 | 8.51 | 2.42 | 2.02 | 2.39 | 3.6 | 1.67
8 | COC(=O)C1C(=O)NC2(C)CC1c1ccccc1O2 (centres undefined) | > 100 | – | > 100 | – | > 100 µM | > 100 | > 100 | – | > 100 µM | – | > 100 µM | > 100 | > 100 | – | > 100 | – | – | – | – | –
9 | C#CCN(CCCOc1ccc(Cl)cc1Cl)CCCSC(=O)CCCCCN1/C(=C\C=C2/CCCC(/C=C/C3=[N+](CCCCCC(=O)[O-])c4ccccc4C3(C)C)=C2Cl)C(C)(C)c2ccccc21 | 4.38 | 2.49 | 6.47 | 1.42 | 3.34 µM | 2.85 | > 100 | 2.02 | 6.72 µM | 1.78 | 3.92 µM | 6.74 | 3.02 | 1.3 | 3.85 | 0.344 | 1.21 | 1.48 | 1.84 | 1.62
10 | O=C(O)c1cc2ccc(Cl)cc2c(O)c1C1=CCCCC1 | > 100 | – | > 100 | – | > 100 µM | > 100 | > 100 | – | 57.2 µM | – | > 100 µM | > 100 | 81.9 | – | 34.7 | – | – | – | – | –
11 | CCOC(=O)C(=O)Nc1nc2ccc(OC)cc2s1 | > 100 | – | > 100 | – | > 100 µM | > 100 | > 100 | – | > 100 µM | – | > 100 µM | > 100 | > 100 | – | > 100 | – | – | – | – | –
12 | c1ccc2[nH]c(-c3cscn3)nc2c1 | > 100 | – | > 100 | – | > 100 µM | > 100 | > 100 | – | > 100 µM | – | > 100 µM | > 100 | > 100 | – | > 100 | – | – | – | – | –
13 | CC(=O)OCCc1cc2ccccc2oc1=O | > 100 | – | > 100 | – | > 100 µM | > 100 | > 100 | – | > 100 µM | – | > 100 µM | > 100 | > 100 | – | > 100 | – | – | – | – | –
